Experimental data: US12415785B2, “Compound modulators of sting” (CTXT PTY LTD, priority 2019, dated 2025)

Assays:
[1] = target: human HAQ isoform of STING (THP-1 STING Lucia ISG cells) (Homo sapiens (Human), UniProt Q86WV6, G230A/H232R/R293Q/R71H); assay: THP-1 STING Lucia ISG reporter cell line assay; format: cell-based; details: 24 h incubation, QUANTI-Luc luminescence
Protocol: (§1) THP-1 STING Lucia ISG cells (InvivoGen #thpI-isg) were cultured in RPMI-1640 containing 2 mM L-glutamine, 25 mM HEPES, 100 μg/mL Normocin (InvivoGen) and 10% heat-inactivated FBS. Cells were seeded at a density of 7×10^5 cells/mL, maintained at 37° C./5% CO2, and passaged every 3-4 days. Selection pressure was maintained by the addition of 100 μg/mL Zeocin every second passage.
(§2) Assay conditions: cells were harvested and resuspended at a concentration of 5×10^5 cells/mL in fresh growth media. Of this cell preparation 20 μL per well was dispensed into 384 well cell culture plates (Greiner, #781098X) and incubated at 37° C./5% CO2 for 2 hours. Concentration Response Curves (commonly 11 doses) were prepared by 2.5 fold serial dilution starting from 10 mM compound stock solution in DMSO. Compound dilutions were transferred into the cell culture plates using a pintool (0.1 μL transfer), control wells were matched for DMSO. Positive control wells received ML RR—S2 CDA (Med Chem Express HY12885B) in 5 μL of media to a final concentration of 40 μM. All other wells received additional 5 μL of media only to equalise volume. The plates were incubated for 24 h at 37° C./5% CO2.
(§3) For the detection step, QUANTI-Luc (InvivoGen #rep-qlc1) was prepared according to manufacturer's instruction and 10 μL were added per well to the culture plates. Plates were shaken for ten seconds on an orbital shaker and left in the dark at room temperature for two minutes, before luminescence was read on a Perkin Elmer Envision plate reader.
(§4) Data analysis: Luminescence raw data was normalised % activity relative to the signal of the positive control wells and negative control wells which were not treated with compound. The following formula was used to calculate normalised % activity from raw signals: % activity=(sample−negative)/(positive−negative)
(§5) The THP-1 STING Lucia ISG cell EC50 provides an assessment of activity at the human HAQ isoform of STING. For assessing compound activity against the WT human STING isoform, an equivalent method was conducted where the cells used were THP-1-Dual KI-hSTING-R232 (InvivoGen #thpd-r232).

[2] = target: WT human STING isoform (THP-1-Dual KI-hSTING-R232 cells) (Homo sapiens (Human), UniProt Q86WV6, H232R); assay: THP-1-Dual KI-hSTING-R232 reporter cell line assay; format: cell-based; details: 24 h incubation, QUANTI-Luc luminescence
Chain of WT human STING isoform (THP-1-Dual KI-hSTING-R232 cells) (Q86WV6 whole entry H232R, canonical isoform): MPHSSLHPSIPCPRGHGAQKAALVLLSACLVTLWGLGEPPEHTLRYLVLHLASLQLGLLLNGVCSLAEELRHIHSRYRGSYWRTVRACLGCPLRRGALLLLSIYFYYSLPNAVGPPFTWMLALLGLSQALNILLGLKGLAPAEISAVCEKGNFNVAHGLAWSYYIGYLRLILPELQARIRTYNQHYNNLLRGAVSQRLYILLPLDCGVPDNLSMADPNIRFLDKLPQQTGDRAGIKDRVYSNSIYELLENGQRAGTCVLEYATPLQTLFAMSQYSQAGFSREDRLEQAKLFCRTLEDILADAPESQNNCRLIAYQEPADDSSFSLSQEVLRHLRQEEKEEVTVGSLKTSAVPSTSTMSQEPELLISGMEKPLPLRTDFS
Protocol: as §1, §2, §3, §4, §5

Chain of human HAQ isoform of STING (THP-1 STING Lucia ISG cells) (Q86WV6 whole entry R71H/G230A/H232R/R293Q, canonical isoform): as the sequence (Q86WV6 whole entry H232R, canonical isoform) above, with R71H, G230A, R293Q counted along it

| EC50 [1] [nM] | EC50 [2] [nM] | Compound |
| --- | --- | --- |
| > 40000 | > 40000 | COc1c(C(N)=O)ccc2c1nc(-c1cccc(Cl)c1-c1nn[nH]n1)n2CCn1c(-c2cccc(Cl)c2-c2nn[nH]n2)nc2c(OC)c(C(N)=O)ccc21 [Example 40, 1,1′-(Ethane-1,2-diyl)bis(2-(3-chloro-2-(2H-tetrazol-5-yl)phenyl)-4-methoxy-1H-benzo[d]imidazole-5-carboxamide)] |
| 830 | 683 | COc1c(C(N)=O)ccc2c1nc(-c1c(F)cc(Cl)cc1C(=O)O)n2CCn1c(-c2c(F)cc(Cl)cc2C(=O)O)nc2c(OC)c(C(N)=O)ccc21 [Example 11, 2,2′-(ethane-1,2-diylbis(5-carbamoyl-4-methoxy-1H-benzo[d]imidazole-1,2-diyl))bis(5-chloro-3-fluorobenzoic acid)] |
| 3380 | 3220 | COc1c(C(N)=O)ccc2c1nc(-c1cc(C)ccc1C(=O)O)n2CCn1c(-c2cc(C)ccc2C(=O)O)nc2c(OC)c(C(N)=O)ccc21 [Example 26, 2,2′-(Ethane-1,2-diylbis(5-carbamoyl-4-methoxy-1H-benzo[d]imidazole-1,2-diyl))bis(4-methylbenzoic acid)] |
| 574 | 440 | COc1c(C(N)=O)ccc2c1nc(-c1c(F)cc(F)cc1-c1nn[nH]n1)n2CCn1c(-c2c(F)cc(F)cc2-c2nn[nH]n2)nc2c(OC)c(C(N)=O)ccc21 [Example 43, 1,1′-(Ethane-1,2-diyl)bis(2-(2,4-difluoro-6-(2H-tetrazol-5-yl)phenyl)-4-methoxy-1H-benzo[d]imidazole-5-carboxamide)] |
| 39100 | 28900 | COc1c(C(N)=O)ccc2c1nc(-c1cnccc1C(=O)O)n2CCn1c(-c2cnccc2C(=O)O)nc2c(OC)c(C(N)=O)ccc21 [Example 30, 3,3′-(Ethane-1,2-diylbis(5-carbamoyl-4-methoxy-1H-benzo[d]imidazole-1,2-diyl))diisonicotinic acid] |
| 3210 | 4390 | COc1c(C(N)=O)ccc2c1nc(-c1cc(Cl)ccc1-c1nn[nH]n1)n2CCn1c(-c2cc(Cl)ccc2-c2nn[nH]n2)nc2c(OC)c(C(N)=O)ccc21 [Example 42, 1,1′-(Ethane-1,2-diyl)bis(2-(5-chloro-2-(2H-tetrazol-5-yl)phenyl)-4-methoxy-1H-benzo[d]imidazole-5-carboxamide)] |
| 415 | 269 | COc1c(C(N)=O)ccc2c1nc(-c1c(F)cccc1-c1nn[nH]n1)n2CCn1c(-c2c(F)cccc2-c2nn[nH]n2)nc2c(OC)c(C(N)=O)ccc21 [Example 48, 1,1′-(Ethane-1,2-diyl)bis(2-(2-fluoro-6-(2H-tetrazol-5-yl)phenyl)-4-methoxy-1H-benzo[d]imidazole-5-carboxamide)] |
| 15900 | 32500 | COc1c(C(N)=O)ccc2c1nc(-c1ccccc1C(=O)O)n2CCn1c(-c2ccccc2C(=O)O)nc2c(OC)c(C(N)=O)ccc21 [Example 4, 2,2′-(Ethane-1,2-diylbis(5-carbamoyl-4-methoxy-1H-benzo[d]imidazole-1,2-diyl))dibenzoic acid] |
| 24800 | 6400 | NC(=O)c1ccc2c(c1)nc(-c1ccccc1-c1nn[nH]n1)n2CCn1c(-c2ccccc2-c2nnn[nH]2)nc2cc(C(N)=O)ccc21 [Example 5, 2-(2-(1H-Tetrazol-5-yl)phenyl)-1-(2-(2-(2-(2H-tetrazol-5-yl)phenyl)-5-carbamoyl-1H-benzo[d]imidazol-1-yl)ethyl)-1H-benzo[d]imidazole-5-carboxamide] |
| 174 | 31.2 | COc1c(C(N)=O)ccc2c1nc(-c1c(F)cc(Cl)cc1-c1n[nH]c(=O)o1)n2CCn1c(-c2c(F)cc(Cl)cc2-c2n[nH]c(=O)o2)nc2c(OC)c(C(N)=O)ccc21 [Example 50, 1,1′-(Ethane-1,2-diyl)bis(2-(4-chloro-2-fluoro-6-(5-oxo-4,5-dihydro-1,3,4-oxadiazol-2-yl)phenyl)-4-methoxy-1H-benzo[d]imidazole-5-carboxamide)] |
| 1490 | 1630 | COC(=O)c1c(Br)cccc1-c1nc2c(OC)c(C(N)=O)ccc2n1CCn1c(-c2cccc(Br)c2C(=O)OC)nc2c(OC)c(C(N)=O)ccc21 [Example 21, Dimethyl 6,6′-(ethane-1,2-diylbis(5-carbamoyl-4-methoxy-1H-benzo[d]imidazole-1,2-diyl))bis(2-bromobenzoate)] |
| 6790 | 3250 | COc1c(C(N)=O)ccc2c1nc(-c1c(F)cc(Cl)cc1Br)n2CCn1c(-c2c(F)cc(Cl)cc2Br)nc2c(OC)c(C(N)=O)ccc21 [Example 45, 1,1′-(Ethane-1,2-diyl)bis(2-(2-bromo-4-chloro-6-fluorophenyl)-4-methoxy-1H-benzo[d]imidazole-5-carboxamide)] |
| 558 | 380 | COc1c(C(N)=O)ccc2c1nc(-c1c(F)cc(F)cc1-c1n[nH]c(=O)o1)n2CCn1c(-c2c(F)cc(F)cc2-c2n[nH]c(=O)o2)nc2c(OC)c(C(N)=O)ccc21 [Example 44, 1,1′-(Ethane-1,2-diyl)bis(2-(2,4-difluoro-6-(5-oxo-4,5-dihydro-1,3,4-oxadiazol-2-yl)phenyl)-4-methoxy-1H-benzo[d]imidazole-5-carboxamide)] |
| > 40000 | > 40000 | COc1c(C(N)=O)ccc2c1nc(-c1cccc(Br)c1C(=O)O)n2CCn1c(-c2cccc(Br)c2C(=O)O)nc2c(OC)c(C(N)=O)ccc21 [Example 36, 6,6′-(Ethane-1,2-diylbis(5-carbamoyl-4-methoxy-1H-benzo[d]imidazole-1,2-diyl))bis(2-bromobenzoic acid)] |
| > 40000 | 29700 | COc1c(C(N)=O)ccc2c1nc(-c1ccc(Cl)cc1-c1noc(=O)[nH]1)n2CCn1c(-c2ccc(Cl)cc2-c2noc(=O)[nH]2)nc2c(OC)c(C(N)=O)ccc21 [Example 32, 1,1′-(Ethane-1,2-diyl)bis(2-(4-chloro-2-(5-oxo-4,5-dihydro-1,2,4-oxadiazol-3-yl)phenyl)-4-methoxy-1H-benzo[d]imidazole-5-carboxamide)] |
| 1530 | 1450 | COc1c(C(N)=O)ccc2c1nc(-c1c(Cl)cccc1C(=O)O)n2CCn1c(-c2c(Cl)cccc2C(=O)O)nc2c(OC)c(C(N)=O)ccc21 (racemic) [Example 22, 2,2′-(Ethane-1,2-diylbis(5-carbamoyl-4-methoxy-1H-benzo[d]imidazole-1,2-diyl))bis(3-chlorobenzoic acid)] |
| 902 | 936 | COc1c(C(N)=O)ccc2c1nc(-c1ccccc1-c1nn[nH]n1)n2CCn1c(-c2ccccc2-c2nn[nH]n2)nc2c(OC)c(C(N)=O)ccc21 [Example 6, 1,1′-(Ethane-1,2-diyl)bis(2-(2-(2H-tetrazol-5-yl)phenyl)-4-methoxy-1H-benzo[d]imidazole-5-carboxamide)] |
| 1590 | 1390 | COc1c(C(N)=O)ccc2c1nc(-c1c(F)cccc1C(=O)O)n2CCn1c(-c2c(F)cccc2C(=O)O)nc2c(OC)c(C(N)=O)ccc21 [Example 10, 2,2′-(Ethane-1,2-diylbis(5-carbamoyl-4-methoxy-1H-benzo[d]imidazole-1,2-diyl))bis(3-fluorobenzoic acid)] |
| 2960 | 3200 | COc1c(C(N)=O)ccc2c1nc(-c1ccc(C)cc1C(=O)O)n2CCn1c(-c2ccc(C)cc2C(=O)O)nc2c(OC)c(C(N)=O)ccc21 [Example 25, 6,6′-(Ethane-1,2-diylbis(5-carbamoyl-4-methoxy-1H-benzo[d]imidazole-1,2-diyl))bis(3-methylbenzoic acid)] |
| > 40000 | > 40000 | CCc1ccc(-c2nc3c(OC)c(C(N)=O)ccc3n2CCn2c(-c3ccc(CC)cc3C(=O)O)nc3c(OC)c(C(N)=O)ccc32)c(C(=O)O)c1 [Example 33, 6,6′-(Ethane-1,2-diylbis(5-carbamoyl-4-methoxy-1H-benzo[d]imidazole-1,2-diyl))bis(3-ethylbenzoic acid)] |
| 1300 | 2780 | COc1c(C(N)=O)cc(F)c2c1nc(-c1ccc(Cl)cc1C(=O)O)n2CCn1c(-c2ccc(Cl)cc2C(=O)O)nc2c(OC)c(C(N)=O)cc(F)c21 [Example 20, 6,6′-(Ethane-1,2-diylbis(5-carbamoyl-7-fluoro-4-methoxy-1H-benzo[d]imidazole-1,2-diyl))bis(3-chlorobenzoic acid)] |

| Compound | EC50 [1] [nM] | EC50 [2] [nM] |
| --- | --- | --- |
| COc1c(C(N)=O)ccc2c1nc(-c1cc(F)c(F)cc1C(=O)O)n2CCn1c(-c2cc(F)c(F)cc2C(=O)O)nc2c(OC)c(C(N)=O)ccc21 [Example 15, 6,6′-(Ethane-1,2-diylbis(5-carbamoyl-4-methoxy-1H-benzo[d]imidazole-1,2-diyl))bis(3,4-difluorobenzoic acid)] | 2560 | 2460 |
